Data taken from US20260297109A1, “COMPOUNDS AS SUMO ACTIVATING ENZYME INHIBITORS” (WIGEN BIOMEDICINE TECHNOLOGY (SHANGHAI) CO., LTD., priority 2022, published 2026).

Biological target: T1, SAE (Homo sapiens, UniProt Q9UBT2)
T1 construct: endogenous in cells; host or cells: HCT116
T1 sequence (Q9UBT2 1-640): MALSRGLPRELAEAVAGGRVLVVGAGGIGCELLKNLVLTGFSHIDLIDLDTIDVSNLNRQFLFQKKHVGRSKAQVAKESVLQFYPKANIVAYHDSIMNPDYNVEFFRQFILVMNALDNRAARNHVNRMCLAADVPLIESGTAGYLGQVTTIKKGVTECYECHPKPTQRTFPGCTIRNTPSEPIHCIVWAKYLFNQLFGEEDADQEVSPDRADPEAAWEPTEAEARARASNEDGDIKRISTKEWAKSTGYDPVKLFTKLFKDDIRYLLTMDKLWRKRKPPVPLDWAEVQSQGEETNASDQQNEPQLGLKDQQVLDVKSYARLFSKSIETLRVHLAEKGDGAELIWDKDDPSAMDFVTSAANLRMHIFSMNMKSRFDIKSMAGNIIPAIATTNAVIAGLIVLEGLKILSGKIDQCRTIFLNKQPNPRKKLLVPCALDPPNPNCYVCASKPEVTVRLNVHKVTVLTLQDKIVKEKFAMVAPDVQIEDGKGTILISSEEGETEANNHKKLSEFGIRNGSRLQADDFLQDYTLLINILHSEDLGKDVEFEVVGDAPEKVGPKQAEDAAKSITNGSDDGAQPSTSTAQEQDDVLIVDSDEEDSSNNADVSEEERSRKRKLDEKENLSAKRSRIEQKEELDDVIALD
T1 sequence (Q9UBE0 1-346): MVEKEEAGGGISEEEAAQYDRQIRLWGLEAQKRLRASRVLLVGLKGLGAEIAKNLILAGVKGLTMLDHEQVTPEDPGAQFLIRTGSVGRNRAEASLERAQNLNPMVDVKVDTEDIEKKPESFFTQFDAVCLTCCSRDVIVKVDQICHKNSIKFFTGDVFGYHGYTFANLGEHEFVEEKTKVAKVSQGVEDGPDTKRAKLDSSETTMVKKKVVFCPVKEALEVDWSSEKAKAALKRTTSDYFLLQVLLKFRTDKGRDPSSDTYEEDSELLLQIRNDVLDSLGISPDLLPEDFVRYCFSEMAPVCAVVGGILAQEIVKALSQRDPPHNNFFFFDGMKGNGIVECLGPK
Assay: SUMO IF: in vitro inhibitory activity assay against SAE in HCT116 cells (SUMO-2/3 immunofluorescence)
Format: cell-based
Conditions: class symbols, 6 h at 37° C.
In short: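 HCT116 cells were treated with compound for 6 h at 37 °C, then PFA-fixed, Triton-permeabilised and BSA-blocked. They were stained overnight at 4 °C with anti-SUMO-2/3 (18H8) rabbit mAb (1:400), then with FITC anti-rabbit IgG (1:300). Fluorescence versus DMSO gave inhibition rate and IC50.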

`NS(=O)(=O)OC[C@H]1[C@H](F)[C@@H](Nc2ncncc2C(=O)c2cc3c(s2)CN(C2CC2)CC32NCCc3ccc(Cl)cc32)C[C@@H]1O` (stereo partly shown) [Compound 579] and `NS(=O)(=O)OC[C@H]1[C@H](F)[C@@H](Nc2ncncc2C(=O)c2cc3c(s2)CNCC32NCCc3ccc(Cl)cc32)C[C@@H]1O` (stereo partly shown) [Compound 582] cannot be ordered by IC50: no more than 0.05 µM for the first, 0.05 to 0.2 µM for the second.

First: NS(=O)(=O)OC[C@H]1[C@H](F)[C@@H](Nc2ncncc2C(=O)c2cc3c(s2)CNC[C@@]32NCCc3ccc(Cl)cc32)C[C@@H]1O [Compound 583]
Second: NS(=O)(=O)OC[C@H]1[C@H](F)[C@@H](Nc2ncncc2C(=O)c2cc3c(s2)CNC[C@]32NCCc3ccc(Cl)cc32)C[C@@H]1O [Compound 584]
The IC50 of the first is higher: greater than 0.2 µM for the first, 0.05 to 0.2 µM for the second.

`NS(=O)(=O)OC[C@H]1[C@H](F)[C@@H](Nc2ncncc2C(=O)c2nc3c(s2)CCCC32NCCc3ccc(Cl)cc32)C[C@@H]1O` (stereo partly shown) [Compound 585] and `NS(=O)(=O)OC[C@H]1[C@H](F)[C@@H](Nc2ncncc2C(=O)c2nc3c(s2)CCC[C@@]32NCCc3ccc(Cl)cc32)C[C@@H]1O` [Compound 586] cannot be ordered by IC50: greater than 0.2 µM for the first, greater than 0.2 µM for the second.

First: NS(=O)(=O)OC[C@H]1[C@H](F)[C@@H](Nc2ncncc2C(=O)c2nc3c(s2)CCC[C@]32NCCc3ccc(Cl)cc32)C[C@@H]1O [Compound 587]
Second: NS(=O)(=O)OC[C@H]1[C@H](F)[C@@H](Nc2ncncc2C(=O)c2nc3c(s2)COCC32NCCc3ccc(Cl)cc32)C[C@@H]1O (stereo partly shown) [Compound 588]
The IC50 of the first is lower: 0.05 to 0.2 µM for the first, greater than 0.2 µM for the second.

`NS(=O)(=O)OC[C@H]1[C@H](F)[C@@H](Nc2ncncc2C(=O)c2nc3c(s2)COC[C@@]32NCCc3ccc(Cl)cc32)C[C@@H]1O` [Compound 589] and `NS(=O)(=O)OC[C@H]1[C@H](F)[C@@H](Nc2ncncc2C(=O)c2nc3c(s2)COC[C@]32NCCc3ccc(Cl)cc32)C[C@@H]1O` [Compound 590] cannot be ordered by IC50: greater than 0.2 µM for the first, greater than 0.2 µM for the second.

`NS(=O)(=O)OC[C@H]1[C@H](F)[C@@H](Nc2ncncc2C(=O)c2nc3c(s2)CSCC32NCCc3ccc(Cl)cc32)C[C@@H]1O` (stereo partly shown) [Compound 591] and `NS(=O)(=O)OC[C@H]1[C@H](F)[C@@H](Nc2ncncc2C(=O)c2nc3c(s2)CSC[C@@]32NCCc3ccc(Cl)cc32)C[C@@H]1O` [Compound 592] cannot be ordered by IC50: greater than 0.2 µM for the first, greater than 0.2 µM for the second.

`NS(=O)(=O)OC[C@H]1[C@H](F)[C@@H](Nc2ncncc2C(=O)c2nc3c(s2)CSC[C@]32NCCc3ccc(Cl)cc32)C[C@@H]1O` [Compound 593] and `NS(=O)(=O)OC[C@H]1[C@H](F)[C@@H](Nc2ncncc2C(=O)c2cc3c(s2)CCCC32NCCc3cnc(Cl)cc32)C[C@@H]1O` (stereo partly shown) [Compound 597] fall in the same range of IC50: 0.05 to 0.2 µM for the first, 0.05 to 0.2 µM for the second.

First: CN1CCc2ccc(Cl)cc2C12CCCc1sc(C(=O)c3cncnc3N[C@H]3C[C@H](O)[C@@H](COS(N)(=O)=O)[C@@H]3F)cc12 (stereo partly shown) [Compound 594]
Second: CN1CCc2ccc(Cl)cc2[C@]12CCCc1sc(C(=O)c3cncnc3N[C@H]3C[C@H](O)[C@@H](COS(N)(=O)=O)[C@@H]3F)cc12 [Compound 595]
The IC50 of the first is lower: 0.05 to 0.2 µM for the first, greater than 0.2 µM for the second.

First: CN1CCc2ccc(Cl)cc2[C@@]12CCCc1sc(C(=O)c3cncnc3N[C@H]3C[C@H](O)[C@@H](COS(N)(=O)=O)[C@@H]3F)cc12 [Compound 596]
Second: NS(=O)(=O)OC[C@H]1[C@H](F)[C@@H](Nc2ncncc2C(=O)c2cc3c(s2)CCC[C@@]32NCCc3cnc(Cl)cc32)C[C@@H]1O [Compound 598]
The IC50 of the first is lower: 0.05 to 0.2 µM for the first, greater than 0.2 µM for the second.

`NS(=O)(=O)OC[C@H]1[C@H](F)[C@@H](Nc2ncncc2C(=O)c2cc3c(s2)CCC[C@]32NCCc3cnc(Cl)cc32)C[C@@H]1O` [Compound 599] gave an IC50 of no more than 0.05 µM.

Same assay, conditions: numeric values, 6 h at 37° C.

First: CN1Cc2sc(C(=O)c3cncnc3N[C@H]3C[C@H](O)[C@@H](COS(N)(=O)=O)[C@@H]3F)cc2[C@]2(C1)NCCc1ccc(Cl)cc12 [Compound 578]
Second: NS(=O)(=O)OC[C@H]1[C@H](F)[C@@H](Nc2ncncc2C(=O)c2cc3c(s2)CN(C2CC2)C[C@@]32NCCc3ccc(Cl)cc32)C[C@@H]1O [Compound 580]
The IC50 of the first is lower: 0.0292 µM for the first, greater than 1 µM for the second. The first is the more potent here.

With `NS(=O)(=O)OC[C@H]1[C@H](F)[C@@H](Nc2ncncc2C(=O)c2cc3c(s2)CN(C2CC2)C[C@]32NCCc3ccc(Cl)cc32)C[C@@H]1O` [Compound 581] the IC50 was 0.0238 µM.
